{"source": "patent US10183949B2", "about": "“Pyrimidinone derivative having autotaxin-inhibitory activity” (The University of Tokyo, priority 2014, dated 2019)", "data": [{"molecular_target": "T1, Human autotaxin enzyme (Homo sapiens, UniProt Q13822)", "T1 construct": "purchased R&D System", "experiment": "Evaluation of autotaxin inhibitor, 18:0 Lyso PC / choline assay (Test Example 2)", "format": "biochemical", "conditions": "autotaxin inhibition, IC50 class; read-out: Inhibitor activity", "method_in_brief": "(§1)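 Inhibition derived from concentration-dependent curves, scaled between no-compound (0%) and no-enzyme (100%) wells. Choline generated from 18:0 Lyso PC (200 μM stock) by human enzyme over 2 h at room temperature (Tris-HCl pH 7.5, NaCl, MgCl2, Triton X-100) read as resorufin fluorescence, 531/598 nm, after choline oxidase-peroxidase coupling.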", "units": {"IC50": "nM"}, "values": [{"smiles": "CC(=O)Nc1cc(Cl)ccc1-c1cc(=O)n(CC(=O)O)cn1", "note": "[Compound I-0246]", "IC50": "≥ 1000"}, {"smiles": "COC(=O)Cn1c(CCCC(F)(F)F)nc(-c2ccc(C(F)(F)F)nc2)cc1=O", "note": "[Compound I-0253]", "IC50": "100 to 1000"}, {"smiles": "CC(=O)Nc1cc(Cl)ccc1-c1cc(=O)n(CC(=O)OC(C)(C)C)cn1", "note": "[Compound I-0244]", "IC50": "10 to 100"}]}, {"molecular_target": "T1, Human autotaxin enzyme", "experiment": "Evaluation of autotaxin inhibitor, 18:0 Lyso PC / choline assay (Test Example 2)", "format": "biochemical", "conditions": "human autotaxin enzyme, 18:0 Lyso PC substrate, choline assay, room temperature 2 hours; read-out: Inhibitor activity (IC50)", "method_in_brief": "as §1", "units": {"IC50": "nM"}, "values": [{"smiles": "CCCCCc1nc(-c2ccc(Cl)cc2)cc(=O)n1CC(=O)N1CC2(COC2)C1", "note": "[Compound I-0091]", "IC50": "≥ 1000"}, {"smiles": "CCCCCc1nc(-c2ccc(Cl)cc2)cc(=O)n1CC(=O)NCC1CCC(=O)NC1", "note": "(stereo not drawn) [Compound I-0037]", "IC50": "100 to 1000"}, {"smiles": "CCS(=O)(=O)N1CCN(C(=O)Cn2cnc(-c3ccc(Cl)cc3NC(=O)C(C)(C)C)cc2=O)CC1", "note": "[Compound I-0490]", "IC50": "100 to 1000"}, {"smiles": "O=C(O)Cn1c(CCCC(F)(F)F)nc(-c2ccc(Cl)cc2CO)cc1=O", "note": "[Compound I-0264]", "IC50": "≥ 1000"}, {"smiles": "O=C(NCc1cnccn1)c1cccc(Cn2c(CCCC(F)(F)F)nc(-c3ccc(Cl)cc3)cc2=O)c1", "note": "[Compound I-0169]", "IC50": "100 to 1000"}, {"smiles": "CCCCCc1nc(-c2ccc(Cl)cc2)cc(=O)n1CC(=O)NCCCC(=O)O", "note": "[Compound I-0044]", "IC50": "< 10"}, {"smiles": "Cc1nc(-c2ccc(Cl)cc2NC(=O)C(C)(C)C)cc(=O)n1CCO", "note": "[Compound I-0371]", "IC50": "≥ 1000"}, {"smiles": "Cc1nc(C2=CCC(C(F)(F)F)CC2)cc(=O)n1CC(=O)NC1(C#N)CC1", "note": "(stereo not drawn) [Compound I-0261]", "IC50": "100 to 1000"}, {"smiles": "CCCCCNc1nc(-c2ccc(C(F)(F)F)cc2)cc(=O)n1Cc1cccc(C(=O)OC(C)(C)C)c1", "note": "[Compound I-0011]", "IC50": "≥ 1000"}, {"smiles": "CCCCCc1nc(-c2ccc(Cl)cc2)[nH]c(=O)c1Cc1cccc(C(=O)O)c1", "note": "[Compound I-0003]", "IC50": "100 to 1000"}, {"smiles": "Cc1nc(-c2ccc(Cl)cc2NC(=O)C(C)(C)C)cc(=O)n1CC(=O)NC(C)(C)C", "note": "[Compound I-0273]", "IC50": "10 to 100"}, {"smiles": "COCCCc1nc(-c2ccc(Cl)cc2)cc(=O)n1CC(=O)NC1(C#N)CC1", "note": "[Compound I-0229]", "IC50": "100 to 1000"}, {"smiles": "CCCCCc1nc(-c2ccc(Cl)cc2)cc(=O)n1CC(=O)NCCCCCC(=O)O", "note": "[Compound I-0043]", "IC50": "10 to 100"}, {"smiles": "CCCCCc1nc(-c2ccc(Cl)cc2)cc(=O)n1CC(=O)NC1CCS(=O)(=O)CC1", "note": "[Compound I-0093]", "IC50": "10 to 100"}, {"smiles": "O=C(Cn1c(CCCC(F)(F)F)nc(-c2ccc(Cl)cc2)cc1=O)NCCCS(=O)(=O)O", "note": "[Compound I-0138]", "IC50": "< 10"}, {"smiles": "CCCCCn1c(-c2ccc(Cl)cc2)cc(=O)n(CC(=O)NC(Cc2ccccc2)C(=O)O)c1=O", "note": "(stereo not drawn) [Compound I-0151]", "IC50": "100 to 1000"}, {"smiles": "CCCCCc1nc(-c2ccc(Cl)cc2)cc(=O)n1CC(=O)NCCC#N", "note": "[Compound I-0080]", "IC50": "10 to 100"}, {"smiles": "Cc1nc(-c2ccc(Cl)cc2NC(=O)C2CC2)cc(=O)n1CC(=O)NCC1(CO)CC1", "note": "[Compound I-0434]", "IC50": "10 to 100"}, {"smiles": "CNC(=O)NC1CCN(C(=O)Cn2c(C)nc(-c3ccc(C#N)cc3NC(=O)OC)cc2=O)CC1", "note": "[Compound I-0381]", "IC50": "10 to 100"}, {"smiles": "CCOCCc1nc(-c2ccc(Cl)cc2)cc(=O)n1CC(=O)NC1(C#N)CC1", "note": "[Compound I-0221]", "IC50": "10 to 100"}, {"smiles": "CCCCCc1nc(-c2ccc(Cl)cc2)cc(=O)n1CC(=O)NC1CCC(C(=O)O)CC1", "note": "(stereo not drawn) [Compound I-0063]", "IC50": "< 10"}, {"smiles": "COC(=O)Nc1cc(Cl)ccc1-c1cc(=O)n(CC(=O)N2CC(F)C2)c(C)n1", "note": "[Compound I-0395]", "IC50": "100 to 1000"}, {"smiles": "Cc1nc(-c2ccc(Cl)cc2NC(=O)C2CC2)cc(=O)n1CC(=O)NCCNS(C)(=O)=O", "note": "[Compound I-0473]", "IC50": "10 to 100"}, {"smiles": "COC(=O)c1cncc(Cn2c(CCCC(F)(F)F)nc(-c3ccc(Cl)cc3)cc2=O)c1", "note": "[Compound I-0307]", "IC50": "100 to 1000"}, {"smiles": "CCNC(=O)N1CCC(NC(=O)Cn2cnc(-c3ccc(Cl)cc3NC(=O)C(C)(C)C)cc2=O)CC1", "note": "[Compound I-0487]", "IC50": "100 to 1000"}, {"smiles": "COC(=O)Nc1cc(C#N)ccc1-c1cc(=O)n(CC(=O)N2CCC(C(N)=O)CC2)c(C)n1", "note": "[Compound I-0445]", "IC50": "< 10"}, {"smiles": "CC(C)(C)C(=O)Nc1cc(Cl)ccc1-c1cc(=O)n(CC(=O)NCC2CCC(=O)NC2)cn1", "note": "(stereo not drawn) [Compound I-0469]", "IC50": "100 to 1000"}, {"smiles": "CCCCCc1nc(-c2ccc(Cl)cc2)cc(=O)n1CC(=O)NCC1(CO)COC1", "note": "[Compound I-0035]", "IC50": "10 to 100"}, {"smiles": "O=C(Cn1c(CCCC(F)(F)F)nc(-c2ccc(C(F)(F)F)cc2)cc1=O)NCC1(O)CCCCC1", "note": "[Compound I-0344]", "IC50": "10 to 100"}, {"smiles": "CCCCCNc1nc(-c2ccc(C(F)(F)F)cc2)cc(=O)n1Cc1ccc(C(=O)O)cc1", "note": "[Compound I-0010]", "IC50": "100 to 1000"}, {"smiles": "CC(C)(C)C(=O)Nc1cc(Cl)ccc1-c1cc(=O)n(Cc2cccc(C(=O)NCC3CCC(=O)NC3)c2)cn1", "note": "(stereo not drawn) [Compound I-0498]", "IC50": "100 to 1000"}, {"smiles": "N#CC1(NC(=O)Cn2c(CCCC(F)(F)F)nc(-c3ccc(C(F)(F)F)nc3)cc2=O)CC1", "note": "[Compound I-0233]", "IC50": "10 to 100"}, {"smiles": "COC(=O)Nc1cc(Cl)ccc1-c1cc(=O)n(CC(=O)NCC2CCC(=O)N2)c(C)n1", "note": "(stereo not drawn) [Compound I-0437]", "IC50": "10 to 100"}, {"smiles": "COC(=O)Nc1cc(Cl)ccc1-c1cc(=O)n(Cc2cccc(C(=N)NO)c2)c(C)n1", "note": "[Compound I-0377]", "IC50": "10 to 100"}, {"smiles": "CCOC(=O)c1nc(Cn2c(CCCC(F)(F)F)nc(-c3ccc(Cl)cc3)cc2=O)cs1", "note": "[Compound I-0326]", "IC50": "10 to 100"}, {"smiles": "COC(=O)Nc1cc(Cl)ccc1-c1cc(=O)n(CC(=O)NCC2(CO)COC2)c(C)n1", "note": "[Compound I-0286]", "IC50": "10 to 100"}, {"smiles": "Cc1nc(-c2ccc(Cl)cc2NC(=O)C2CC2)cc(=O)n1CC(=O)NC(C)(C)C", "note": "[Compound I-0405]", "IC50": "10 to 100"}, {"smiles": "COC(=O)Nc1cc(Cl)ccc1-c1cc(=O)n(CC(=O)NC(C)(C)C)c(C)n1", "note": "[Compound I-0265]", "IC50": "10 to 100"}, {"smiles": "CCCCCc1nc(-c2ccc(Cl)cc2)cc(=O)n1CC(=O)N[C@@H]1CN2CCC1CC2", "note": "[Compound I-0078]", "IC50": "≥ 1000"}, {"smiles": "CCCCCc1nc(-c2ccc(Cl)cc2)cc(=O)n1CC(=O)Nc1ncc(C#N)s1", "note": "[Compound I-0083]", "IC50": "≥ 1000"}, {"smiles": "COC(=O)Nc1cc(Cl)ccc1-c1cc(=O)n(CC(=O)NC2(c3nc(C)no3)CC2)c(C)n1", "note": "[Compound I-0467]", "IC50": "10 to 100"}, {"smiles": "O=C(NCC1(CO)COC1)c1ccc(Cn2c(CCCC(F)(F)F)nc(-c3ccc(Cl)cc3)cc2=O)o1", "note": "[Compound I-0355]", "IC50": "100 to 1000"}, {"smiles": "CCC(CO)(CO)NC(=O)Cn1c(CCCC(F)(F)F)nc(-c2ccc(Cl)cc2)cc1=O", "note": "[Compound I-0144]", "IC50": "10 to 100"}, {"smiles": "CC(C)(C)NC(=O)c1cccc(Cn2cnc(-c3ccc(Cl)cc3NC(=O)C(C)(C)C)cc2=O)c1", "note": "[Compound I-0477]", "IC50": "100 to 1000"}, {"smiles": "CCCCCNc1nc(-c2ccc(C(F)(F)F)cc2)cc(=O)n1Cc1ccccc1", "note": "[Compound I-0004]", "IC50": "≥ 1000"}, {"smiles": "Cc1nc(-c2ccc(Cl)cc2NC(=O)C(C)(C)C)cc(=O)n1CC(=O)NCC1(CO)COC1", "note": "[Compound I-0317]", "IC50": "10 to 100"}, {"smiles": "CCCCCc1nc(-c2ccc(Cl)cc2)cc(=O)n1CC(=O)NC1(C(=O)O)CCCC1", "note": "[Compound I-0057]", "IC50": "10 to 100"}, {"smiles": "COC(=O)Nc1cc(C#N)ccc1-c1cc(=O)n(CC(=O)NCc2cc(=O)[nH]o2)c(C)n1", "note": "[Compound I-0429]", "IC50": "< 10"}, {"smiles": "COC(=O)Nc1cc(C#N)ccc1-c1cc(=O)n(Cc2cccc(-c3nc(=O)o[nH]3)c2)c(C)n1", "note": "[Compound I-0378]", "IC50": "< 10"}, {"smiles": "N#CC1(NC(=O)Cn2c(COCC(F)(F)F)nc(-c3ccc(Cl)cc3)cc2=O)CC1", "note": "[Compound I-0210]", "IC50": "10 to 100"}, {"smiles": "CCCCCc1nc(-c2ccc(Cl)cc2)cc(=O)n1CC(=O)NC(C)CC#N", "note": "(stereo not drawn) [Compound I-0079]", "IC50": "10 to 100"}]}]}
